{"source": "patent US12467038B2", "about": "“Methods of culturing human pluripotent cells” (Hadasit Medical Research Services and Development Ltd., priority 2019, dated 2025)", "key": {"[1]": {"test_system": "FGF5-GFP hPSC reporter clones (HES-1)", "assay": "FACS analysis of FGF5-GFP expression in hPS-FGF5 reporter clones", "format": "cell-based, human", "description": "hPSC culture—hPSC culture—hPSC lines HES-1, HES-2 (10), HADC100, HADC102 (36) and H7 (9) were cultured on human foreskin feeders in serum free medium as described (30, 87). hPSC culturing in suspension was performed as reported (31) with minor modifications of the culture medium that was composed of Neurobasal medium, 14% KO-SR, L-glutamine 2 mM, 50 units/ml penicillin, 50 μg/ml streptomycin, 1% nonessential amino acids (all from Invitrogen, Carlsbad, Calif., USA). The medium was supplemented with FGF2 20 ng/ml, and activin A 25 ng/ml (both from Peprotech, Rocky Hill, N.J., USA), and laminin 0.5 μg/ml (Sigma-Aldrich, St. Louis, Mo., USA). For hPSC culturing on mouse LN111, 3-D Culture Matrix Laminin I (CULTREX, TREVIGEN, #3446-005-01, Gaithersburg, Md., USA) was diluted to a concentration of 1 mg/ml. Tissue culture dishes were coated with LN111, incubated overnight at 37° C. to promote matrix gelling, and washed with PBS. hPSCs were cultured on LN111 in a chemically defined medium composed of DMEM/F12, B27 supplement (1:50), N2 supplement (1:100) 2 mM L-glutamine, 50 units/ml penicillin, 50 μg/ml streptomycin (all from Invitrogen), and supplemented with 20 ng/ml bFGF (Peprotech). The cells were cultured in 5% CO2, 5% O2 incubator They were passaged every 7 days as small clusters by treatment with 1 mg/ml collagenase type IV (Invitrogen), and plated in a medium containing 5 μM ROCK inhibitor. hPSC culture under naïve conditions was performed using the 5iLFA protocol (20).\nGeneration of FGF5 reporter cell lines—a 3 kb fragment of human FGF5 promoter (GeneBank accession number NT_016354) was amplified from HES-1 genomic DNA using Expand High Fidelity PCR System (Roche Applied Science, Penzberg, Germany) with primers CG ? TTGCTTTCCTGGCTGGGAG (SEQ ID NO: 1) (EcoRI) and CA ? AGCCTCGGGGAAGAGAAGG (SEQ ID NO: 2) (ApaI). […] Single colonies were picked, replated, and analyzed for the integrity of the integrated reporter vector. […]"}, "LN-hPSCs": {"test_system": "LN-hPSCs", "assay": "FACS analysis of pluripotency cell-surface markers", "format": "cell-based, human", "conditions": "HES-1 cells cultured on LN111", "description": "Signaling pathways analysis—hPSCs were cultured on LN111 for 2 days in complete medium, and then for additional 3-5 days in a medium+/−FGF2 in the presence of the following small molecules: PD032590 1 μM (Peprotech), LY294002 10 μM, SB431542 10 μM, CHIR99021 3 μM (all from Cayman Chemical, Michigan, USA), XAV939 2.5 μM (Peprotech), BMP4 50 ng/ml (Biogems-Peprotech). FACS analysis—FACS analyses were performed using the following primary antibodies: mouse IgM anti-TRA-1-60 (1:100; mab4360, R&D), and mouse IgM anti-TRA-1-81 (1:100; mab4381, R&D), and Rat IgM anti-SSEA-3. Staining with respective isotype control antibodies (all from eBiosciences) served as controls. Detection of primary antibodies was performed using the following secondary antibodies: FITC-conjugated Polyclonal Goat Anti-Mouse Immunoglobulins (1:100; Dako, Glostrup, Denmark), APC-conjugated Goat anti-Mouse IgM/G (1:200; Cat. No. 1020-11, SouthernBiotech, Birmingham, Ala., USA), and APC-conjugated anti-Rat (1:200; eBioscience). FACS analysis was performed on a FACScalibur system (Becton-Dickinson, San Jose, Calif.) using the Cellquest software. A detailed FACS procedure is described elsewhere. FACS analysis—FACS analyses for pluripotency marker expression were performed using mouse anti-TRA-1-60 (1:100; mab4360, R&D), and mouse anti-TRA-1-81 (1:100; mab4381, R&D). […]"}}}
{"substance": "LN111: mouse LN111, 3-D Culture Matrix Laminin I (CULTREX, TREVIGEN), coating of culture dishes", "values": [{"measurement": "percentage of FGF5-GFP expressing cells", "setting": "[1]; reporter clone #1 cultured on LN111", "result": "86%±2"}, {"measurement": "percentage of FGF5-GFP expressing cells", "setting": "[1]; reporter clone #2 cultured on LN111", "result": "90%±1"}, {"measurement": "percentage of FGF5-GFP expressing cells", "setting": "[1]; reporter clone #3 cultured on LN111", "result": "79%±3"}, {"measurement": "cells expressing TRA-1-60 and TRA-1-81", "setting": "LN-hPSCs", "result": "over 90%"}]}
